For assay [1], the system named is Mycobacterium tuberculosis. As to the kind of experiment: Antibacterial activity against Mycobacterium tuberculosis H37Rv. It is filed as functional.
For assay [2], the system named is Vero. Description: Inhibition of mammalian Vero cell viability at 6.25 and 62.5 ug/ml by MTT assay. It is filed as functional, cell-based. The following applies: Chlorocebus sabaeus. For orientation: Tetrazolium dyes change colour on reduction, which living cells bring about.
Assay [3] relates to Vero. As to the kind of experiment: Selectivity index as ratio of IC50 over MIC. It is filed as functional.

Each structure is given as a SMILES string. In brackets after ≈: the same amount, converted by molar mass.

In assay [1], `C/C(=N/NC(=O)c1ccncc1)c1ccc(N/C(S)=N/c2ccc(C)cc2)cc1` showed an MIC of 1.93 µM (≈ 0.779 µg/mL). This molecule registered an IC50 in the assay on Vero [2] of 155 µM.
With `C/C(=N/NC(=O)c1ccncc1)c1ccc(N/C(S)=N/c2ccc(F)cc2)cc1`, the Selectivity index in the assay with Vero [3] is over 312. The molecule further showed an MIC in assay [1] of 0.49 µM (≈ 0.2 µg/mL). This molecule also came in with an IC50 with Vero [2] of over 153 µM.
Take `COc1ccc(N/C(S)=N\c2ccc(/C(C)=N\NC(=O)c3ccncc3)cc2)cc1`: 0.47 µM (≈ 0.197 µg/mL) was the least that counted as inhibitory in assay [1] (MIC). The molecule also displayed an IC50 in the assay with Vero [2] of over 149 µM.
The like results for `CCOc1ccc(N/C(S)=N\c2ccc(/C(C)=N\NC(=O)c3ccncc3)cc2)cc1` were, in that order, 0.89 µM (≈ 0.386 µg/mL) and 144 µM.
`C/C(=N/NC(=O)c1ccncc1)c1ccc(N/C(S)=N/c2ccccc2)cc1` yielded an MIC in assay [1] of 4 µM (≈ 1.56 µg/mL). Moreover, half-maximal inhibition in the assay on Vero [2] (IC50) was put at 160 µM.
The like results for `C/C(=N/NC(=O)c1ccncc1)c1ccc(N/C(S)=N/c2ccc(Br)cc2)cc1` were, in that order, 1.66 µM (≈ 0.778 µg/mL) and 133 µM.
For `NNC(=O)c1ccncc1` [ISONIAZID], the MIC in assay [1] is 1.46 µM (≈ 0.2 µg/mL). The same molecule gave an IC50 in the assay with Vero [2] of over 455 µM.

In general, MIC refers to the lowest concentration found to suppress growth. As usually defined, the IC50 is the concentration that gives 50% inhibition. A higher IC50 goes with weaker potency in that assay.

The values above are taken from ChEMBL document CHEMBL1149454, “Synthesis and in vitro antitubercular activity of some 1-[(4-sub)phenyl]-3-(4-{1-[(pyridine-4-carbonyl)hydrazono]ethyl}phenyl)thiourea” (Bioorg Med Chem Lett, 2006).
